Earlier results in US20030035836A1, “Oral controlled release pharmaceutical composition for once-a-day therapy for the treatment and prophylaxis of cardiac and circulatory diseases” (priority 2001, published 2003).

Settings: oral administration; considerable first pass metabolism

absolute bioavailability: 25%
SMILES: COc1ccccc1OCCNCC(O)COc1cccc2[nH]c3ccccc3c12 (racemic) [Carvedilol, 1-(9H-carbazol-4-yloxy)-3-[[2-(2-methoxyphenoxy)ethyl]amino]-2-propanol]
